Reference: PMC4503722, “Novel Phenotypic Outcomes Identified for a Public Collection of Approved Drugs from a Publicly Accessible Panel of Assays” (PLoS ONE, 2015)
Structures can show the parent of a compound that is named as a salt. Where two headings read alike, the source gives them in different places.

Tests used:
HeLa cells = test: cells; type: cell-based; conditions: read-out: CellCycle G2/M
INS-1E cells = test: cells; type: cell-based, rat
hJAK2 = target: T1, hJAK2 (Homo sapiens, UniProt O60674); test: Cerep LANCE kinase assay hJAK2 (S1 assay 33); type: biochemical; conditions: read-out: JAK2
T1 construct: purchased Cerep (LANCE kinase assay platform, contract assay)

HCT116 = test: cells; type: cell-based
hp70S6K1 (RPS6KB1) = target: T2, hp70S6K1 (RPS6KB1) (Homo sapiens, UniProt P23443); test: Cerep LANCE kinase assay hp70S6K1 (S1 assay 31); type: biochemical; conditions: read-out: p70S6K1
T2 construct: purchased Cerep (LANCE kinase assay platform, contract assay)

SW480 = test: cells; type: cell-based
hFLT3 = target: T3, hFLT3 (Homo sapiens, UniProt P36888); test: Cerep LANCE kinase assay hFLT3 (S1 assay 35); type: biochemical; conditions: read-out: FLT3
T3 construct: purchased Cerep (LANCE kinase assay platform, contract assay)

[1] = tested on: nuclear β-catenin in C2C12 cells; test: cells; type: cell-based
[2] = tested on: endothelial tube formation in co-cultures of ECFCs and ADSCs treated with VEGF; test: cells; type: cell-based, human
hKDR = target: T4, hKDR (Homo sapiens, UniProt P35968); test: Cerep LANCE kinase assay hKDR (S1 assay 32); type: biochemical
T4 construct: purchased Cerep (LANCE kinase assay platform, contract assay)

hGSK3b = target: T5, hGSK3b (Homo sapiens, UniProt P49841); test: Cerep LANCE kinase assay hGSK3b (S1 assay 34); type: biochemical; conditions: read-out: GSK3b
T5 construct: purchased Cerep (LANCE kinase assay platform, contract assay)

[3] = tested on: HCT116 cells treated with a GSK3β inhibitor; test: cells; type: cell-based
NCI-H716 cells = test: cells; type: cell-based, Human
DLD-1 = test: cells; type: cell-based
[4] = Homo sapiens, HeLa, IC50 / EC50, HeLa
[5] = Rattus norvegicus; IC50 / EC50; INS-1E; read-out: Insulin Secretion
[6] = Homo sapiens, HCT-116, basal, read-out: Basal_Viability ATP HCT116
[7] = Homo sapiens, SW480, basal, read-out: Basal_Viability ATP SW480
[8] = Mus musculus, C2C12, IC50 / EC50; C2C12 beta-catenin translocation; read-out: Wnt Pathway
[9] = Homo sapiens, IC50 / EC50; endothelial tube area, ADSC/ECFC co-culture; read-out: Anti-Angiogenesis
[10] = Homo sapiens; IC50 / EC50; NCI-H716; read-out: GLP 1 Secretion
[11] = Homo sapiens, DLD-1, basal, read-out: Basal_Viability ATP DLD-1
[12] = Homo sapiens, HCT-116, read-out: GSK3b inh pretreated_Viability ATP HCT116
[13] = Rattus norvegicus, INS-1E, read-out: Insulin Secretion
[14] = Homo sapiens, HCT-116, read-out: Basal_Viability ATP HCT116
[15] = Homo sapiens, SW480, read-out: Basal_Viability ATP SW480
[16] = Mus musculus, C2C12, read-out: Wnt Pathway
[17] = Homo sapiens, read-out: Anti-Angiogenesis
[18] = Homo sapiens, NCI-H716, read-out: GLP 1 Secretion
[19] = Homo sapiens, DLD-1, read-out: Basal_Viability ATP DLD-1
[20] = Homo sapiens, HeLa, S2 Table, HeLa, 20 = no response at highest concentration
[21] = Rattus norvegicus, INS-1E; read-out: Insulin Secretion
[22] = Homo sapiens, HCT-116, basal, HCT116, read-out: Basal_Viability ATP HCT116
[23] = Homo sapiens, SW480, basal, SW480, read-out: Basal_Viability ATP SW480
[24] = Mus musculus, C2C12; read-out: Wnt Pathway
[25] = Homo sapiens; read-out: Anti-Angiogenesis
[26] = Homo sapiens, HCT-116, HCT116 pretreated with GSK3b inhibitor, read-out: GSK3b inh pretreated_Viability ATP HCT116
[27] = Homo sapiens, NCI-H716; read-out: GLP 1 Secretion
[28] = Homo sapiens, DLD-1, basal, DLD-1, read-out: Basal_Viability ATP DLD-1

T1 sequence (O60674 whole entry): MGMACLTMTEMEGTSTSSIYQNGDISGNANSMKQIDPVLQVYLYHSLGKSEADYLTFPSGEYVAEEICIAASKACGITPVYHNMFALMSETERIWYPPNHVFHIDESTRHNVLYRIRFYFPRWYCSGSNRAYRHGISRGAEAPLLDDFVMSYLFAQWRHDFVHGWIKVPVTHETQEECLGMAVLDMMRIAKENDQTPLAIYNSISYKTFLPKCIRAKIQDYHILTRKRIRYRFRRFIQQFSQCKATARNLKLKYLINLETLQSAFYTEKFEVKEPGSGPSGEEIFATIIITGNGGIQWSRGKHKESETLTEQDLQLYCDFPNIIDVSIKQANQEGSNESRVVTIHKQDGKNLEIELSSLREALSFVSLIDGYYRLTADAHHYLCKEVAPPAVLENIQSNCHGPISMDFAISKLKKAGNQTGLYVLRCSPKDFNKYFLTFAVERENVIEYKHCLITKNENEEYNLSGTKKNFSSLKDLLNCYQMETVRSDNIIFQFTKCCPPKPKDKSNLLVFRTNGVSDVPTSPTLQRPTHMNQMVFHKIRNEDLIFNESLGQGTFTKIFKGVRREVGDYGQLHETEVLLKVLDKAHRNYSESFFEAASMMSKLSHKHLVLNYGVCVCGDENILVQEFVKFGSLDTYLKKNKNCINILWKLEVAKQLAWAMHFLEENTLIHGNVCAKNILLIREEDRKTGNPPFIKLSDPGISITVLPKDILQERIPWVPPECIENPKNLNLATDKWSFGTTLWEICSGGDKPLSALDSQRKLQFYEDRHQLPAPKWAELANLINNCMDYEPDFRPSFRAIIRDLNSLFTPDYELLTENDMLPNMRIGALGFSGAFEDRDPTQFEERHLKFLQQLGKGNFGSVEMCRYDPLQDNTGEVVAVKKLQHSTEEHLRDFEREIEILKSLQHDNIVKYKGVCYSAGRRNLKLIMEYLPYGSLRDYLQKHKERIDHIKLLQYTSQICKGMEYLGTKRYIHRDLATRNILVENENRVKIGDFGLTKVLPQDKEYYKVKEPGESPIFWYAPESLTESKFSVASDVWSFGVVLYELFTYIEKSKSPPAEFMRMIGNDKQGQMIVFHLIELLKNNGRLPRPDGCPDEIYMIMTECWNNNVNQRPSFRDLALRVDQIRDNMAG
T5 sequence (P49841 whole entry): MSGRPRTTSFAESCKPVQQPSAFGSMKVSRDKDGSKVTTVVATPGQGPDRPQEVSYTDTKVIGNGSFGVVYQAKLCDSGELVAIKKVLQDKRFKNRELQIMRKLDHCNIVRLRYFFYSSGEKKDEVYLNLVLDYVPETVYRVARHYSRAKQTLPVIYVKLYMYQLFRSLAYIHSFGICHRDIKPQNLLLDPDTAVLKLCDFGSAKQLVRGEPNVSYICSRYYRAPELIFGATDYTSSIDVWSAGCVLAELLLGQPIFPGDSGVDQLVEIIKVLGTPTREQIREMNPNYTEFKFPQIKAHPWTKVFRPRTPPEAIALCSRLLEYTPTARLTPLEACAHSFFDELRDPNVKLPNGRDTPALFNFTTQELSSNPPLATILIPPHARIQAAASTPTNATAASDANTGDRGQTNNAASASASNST
T4 sequence (P35968 20-1356): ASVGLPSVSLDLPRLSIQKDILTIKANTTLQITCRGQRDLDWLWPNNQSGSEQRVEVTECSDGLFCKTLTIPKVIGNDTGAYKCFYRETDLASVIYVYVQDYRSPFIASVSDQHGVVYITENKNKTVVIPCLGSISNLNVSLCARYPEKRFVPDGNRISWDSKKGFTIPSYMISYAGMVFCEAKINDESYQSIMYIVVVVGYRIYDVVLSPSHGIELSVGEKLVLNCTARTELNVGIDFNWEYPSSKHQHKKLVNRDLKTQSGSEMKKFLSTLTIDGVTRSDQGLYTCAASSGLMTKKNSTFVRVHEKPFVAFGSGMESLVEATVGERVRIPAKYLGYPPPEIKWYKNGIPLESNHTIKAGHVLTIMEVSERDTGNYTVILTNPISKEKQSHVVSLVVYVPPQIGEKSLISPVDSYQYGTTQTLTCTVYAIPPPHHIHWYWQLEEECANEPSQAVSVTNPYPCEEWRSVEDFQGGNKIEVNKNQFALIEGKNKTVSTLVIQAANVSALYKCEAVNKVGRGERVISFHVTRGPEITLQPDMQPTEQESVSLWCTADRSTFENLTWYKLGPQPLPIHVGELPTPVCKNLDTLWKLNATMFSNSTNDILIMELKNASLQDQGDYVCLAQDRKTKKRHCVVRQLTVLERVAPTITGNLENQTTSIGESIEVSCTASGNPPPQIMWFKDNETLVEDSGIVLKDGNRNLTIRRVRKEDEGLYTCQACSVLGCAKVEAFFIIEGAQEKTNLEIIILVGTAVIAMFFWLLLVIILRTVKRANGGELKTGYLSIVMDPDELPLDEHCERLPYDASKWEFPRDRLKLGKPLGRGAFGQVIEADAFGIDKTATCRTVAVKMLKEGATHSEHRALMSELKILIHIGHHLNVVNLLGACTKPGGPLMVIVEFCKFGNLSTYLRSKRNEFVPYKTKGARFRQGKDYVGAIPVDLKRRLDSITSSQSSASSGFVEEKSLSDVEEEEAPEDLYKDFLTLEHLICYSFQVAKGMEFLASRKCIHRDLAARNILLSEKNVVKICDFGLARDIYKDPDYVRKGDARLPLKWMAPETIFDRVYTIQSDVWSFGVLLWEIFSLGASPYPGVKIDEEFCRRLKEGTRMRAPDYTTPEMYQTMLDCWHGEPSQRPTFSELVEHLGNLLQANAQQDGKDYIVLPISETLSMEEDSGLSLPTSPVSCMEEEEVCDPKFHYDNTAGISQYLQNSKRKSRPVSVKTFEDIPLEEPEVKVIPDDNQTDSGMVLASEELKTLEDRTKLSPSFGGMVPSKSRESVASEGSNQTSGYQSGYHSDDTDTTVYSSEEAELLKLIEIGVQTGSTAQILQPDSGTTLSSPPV
T3 sequence (P36888 27-993): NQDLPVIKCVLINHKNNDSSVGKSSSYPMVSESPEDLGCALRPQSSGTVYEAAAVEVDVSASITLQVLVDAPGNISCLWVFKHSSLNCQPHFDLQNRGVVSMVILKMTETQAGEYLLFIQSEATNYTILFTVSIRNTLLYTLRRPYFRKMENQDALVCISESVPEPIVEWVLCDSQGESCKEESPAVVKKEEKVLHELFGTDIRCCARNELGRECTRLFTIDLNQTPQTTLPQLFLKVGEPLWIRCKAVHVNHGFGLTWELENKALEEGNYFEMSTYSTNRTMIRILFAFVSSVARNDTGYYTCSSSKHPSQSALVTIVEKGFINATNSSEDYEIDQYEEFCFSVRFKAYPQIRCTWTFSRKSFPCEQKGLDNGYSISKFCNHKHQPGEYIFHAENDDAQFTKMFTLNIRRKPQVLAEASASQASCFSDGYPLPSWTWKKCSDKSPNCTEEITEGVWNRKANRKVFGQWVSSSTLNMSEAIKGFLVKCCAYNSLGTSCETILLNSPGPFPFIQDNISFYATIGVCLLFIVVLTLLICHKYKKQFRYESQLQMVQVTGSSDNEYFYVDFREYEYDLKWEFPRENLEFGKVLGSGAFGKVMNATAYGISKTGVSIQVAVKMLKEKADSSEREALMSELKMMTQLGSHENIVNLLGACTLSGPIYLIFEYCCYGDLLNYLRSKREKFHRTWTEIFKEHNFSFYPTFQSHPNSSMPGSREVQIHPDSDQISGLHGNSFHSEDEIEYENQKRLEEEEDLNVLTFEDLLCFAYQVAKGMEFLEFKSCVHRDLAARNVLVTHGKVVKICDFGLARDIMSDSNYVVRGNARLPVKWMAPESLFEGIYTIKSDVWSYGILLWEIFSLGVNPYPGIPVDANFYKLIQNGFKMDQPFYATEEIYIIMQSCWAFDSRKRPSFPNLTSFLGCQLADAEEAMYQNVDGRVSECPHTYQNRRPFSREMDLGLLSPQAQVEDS
T2 sequence (P23443 whole entry): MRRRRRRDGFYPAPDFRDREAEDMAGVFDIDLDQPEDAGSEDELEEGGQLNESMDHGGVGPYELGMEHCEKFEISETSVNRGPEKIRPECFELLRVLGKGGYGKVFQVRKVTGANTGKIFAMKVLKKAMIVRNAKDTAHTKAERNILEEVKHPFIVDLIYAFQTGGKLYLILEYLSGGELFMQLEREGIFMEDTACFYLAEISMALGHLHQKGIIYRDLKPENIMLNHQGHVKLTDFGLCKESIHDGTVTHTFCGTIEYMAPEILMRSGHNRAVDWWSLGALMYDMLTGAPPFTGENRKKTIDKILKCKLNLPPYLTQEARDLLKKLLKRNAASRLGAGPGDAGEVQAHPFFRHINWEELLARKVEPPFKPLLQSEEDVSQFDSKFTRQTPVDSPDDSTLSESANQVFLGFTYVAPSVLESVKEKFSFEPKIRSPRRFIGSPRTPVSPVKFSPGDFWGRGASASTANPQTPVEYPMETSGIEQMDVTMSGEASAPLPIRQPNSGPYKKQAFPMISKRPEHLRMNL

| Compound | EC50 (HeLa cells; [4]) [µM] | EC50 (INS-1E cells; [5]) [µM] | IC50 (hJAK2) [µM] | IC50 (HCT116; [6]) [µM] | IC50 (hp70S6K1 (RPS6KB1)) [µM] | IC50 (SW480; [7]) [µM] | IC50 (hFLT3) [µM] | EC50 [1, 8] [µM] | IC50 [2, 9] [µM] | IC50 (hKDR; read-out: KDR) [µM] | IC50 (hGSK3b) [µM] | EC50 (NCI-H716 cells; [10]) [µM] | IC50 (DLD-1; [11]) [µM] | IC50 [3, 12] [µM] | IC50 (hJAK2; kinase assay) [µM] | IC50 (hp70S6K1 (RPS6KB1); kinase assay) [µM] | IC50 (hFLT3; kinase assay) [µM] | IC50 (hKDR; kinase assay, read-out: KDR) [µM] | IC50 (hGSK3b; kinase assay) [µM] | also measured |
| --- | --- | --- | --- | --- | --- | --- | --- | --- | --- | --- | --- | --- | --- | --- | --- | --- | --- | --- | --- | --- |
| CCCCCCNC(=O)n1cc(F)c(=O)[nH]c1=O [Carmofur] | > 10 | > 10 | > 20 | > 20 | > 20 | 10.6 | > 20 | 4.98 | 4.49 | > 20 | > 20 | > 10 | > 20 | – | – | – | – | – | – | IC50 ([3]; Homo sapiens, HCT-116, GSK3b inhibitor pretreated, read-out: GSK3b inh pretreated_Viability ATP HCT116): 10.5 µM |
| [O-][n+]1ccccc1SSc1cccc[n+]1[O-] [Dipyrithione magnesium sulfate] | – | – | > 20 | – | > 20 | – | > 20 | – | – | > 20 | > 20 | – | – | – | – | – | – | – | – | EC50 (HeLa cells): > 10 µM; EC50 (INS-1E cells; read-out: Insulin Secretion): > 10 µM; IC50 (HCT116; read-out: Basal_Viability ATP HCT116): 20 µM; IC50 (SW480; read-out: Basal_Viability ATP SW480): > 20 µM; EC50 ([1]; read-out: Wnt Pathway): 0.131 µM; IC50 ([2]; read-out: Anti-Angiogenesis): 0.719 µM; IC50 ([3]; read-out: GSK3b inh pretreated_Viability ATP HCT116): > 20 µM; EC50 (NCI-H716 cells; read-out: GLP 1 Secretion): > 10 µM; IC50 (DLD-1; read-out: Basal_Viability ATP DLD-1): > 20 µM |
| CCCCCCCCCCCCCCCCCCNC(=O)OC1CCN(C(=O)OC[C@H](COC(=O)N(Cc2cccc[n+]2CC)C(=O)c2ccccc2OC)OC)CC1 [E-5880] | – | – | > 20 | – | > 20 | – | > 20 | – | – | > 20 | > 20 | – | – | – | – | – | – | – | – | EC50 (HeLa cells; IC50 / EC50, HeLa): > 10 µM; EC50 (INS-1E cells; IC50 / EC50; INS-1E; read-out: Insulin Secretion): > 20 µM; IC50 (HCT116; basal, read-out: Basal_Viability ATP HCT116): 4.11 µM; IC50 (SW480; basal, read-out: Basal_Viability ATP SW480): 0.543 µM; EC50 ([1]; IC50 / EC50; C2C12 beta-catenin translocation; read-out: Wnt Pathway): > 10 µM; IC50 ([2]; IC50 / EC50; endothelial tube area, ADSC/ECFC co-culture; read-out: Anti-Angiogenesis): 1.5 µM; IC50 ([3]; GSK3b inhibitor pretreated, read-out: GSK3b inh pretreated_Viability ATP HCT116): 4.42 µM; EC50 (NCI-H716 cells; IC50 / EC50; NCI-H716; read-out: GLP 1 Secretion): 9.52 µM; IC50 (DLD-1; basal, read-out: Basal_Viability ATP DLD-1): 3.28 µM |
| CC[C@@]1(O)C(=O)OCc2c1cc1n(c2=O)Cc2c-1nc1ccccc1c2/C=N/OC(C)(C)C [Gimatecan] | > 10 | > 10 | > 20 | 0.0667 | > 20 | 0.222 | > 20 | 0.0032 | 0.002 | > 20 | > 20 | > 10 | 0.315 | 0.0667 | – | – | – | – | – | – |
| CCN(CC)CCNc1ccc(CO)c2sc3ccccc3c(=O)c12 [Hycanthonum] | – | – | – | – | – | – | – | – | – | – | – | – | – | – | > 20 | 17.1 | > 20 | > 20 | > 20 | EC50 (HeLa cells; S2 Table, HeLa, 20 = no response at highest concentration): > 10 µM; EC50 (INS-1E cells; S2 Table; module primary assay; 20 / 20.1 codes per legend; read-out: Insulin Secretion): > 10 µM; IC50 (HCT116; basal, HCT116, read-out: Basal_Viability ATP HCT116): 8.59 µM; IC50 (SW480; basal, SW480, read-out: Basal_Viability ATP SW480): 6.84 µM; EC50 ([1]; read-out: Wnt Pathway): 2.67 µM; IC50 ([2]; read-out: Anti-Angiogenesis): 8.35 µM; IC50 ([3]; HCT116 pretreated with GSK3b inhibitor, read-out: GSK3b inh pretreated_Viability ATP HCT116): > 20 µM; EC50 (NCI-H716 cells; S2 Table; module primary assay; 20 / 20.1 codes per legend; read-out: GLP 1 Secretion): > 10 µM; IC50 (DLD-1; basal, DLD-1, read-out: Basal_Viability ATP DLD-1): > 20 µM |
| CC(=O)[C@]1(O)Cc2c(O)c3c(c(O)c2[C@@H](O[C@H]2C[C@H](N)[C@H](O)[C@H](C)O2)C1)C(=O)c1ccccc1C3=O [Idarubicin] | – | – | – | – | – | – | – | – | – | – | – | – | – | 0.1 | > 20 | > 20 | > 20 | > 20 | > 20 | EC50 (HeLa cells; Homo sapiens, HeLa): > 10 µM; EC50 (INS-1E cells; [13]): > 10 µM; IC50 (HCT116; [14]): 0.0667 µM; IC50 (SW480; [15]): 4.75 µM; EC50 [1, 16]: 0.1 µM; IC50 [2, 17]: 0.0208 µM; EC50 (NCI-H716 cells; [18]): > 10 µM; IC50 (DLD-1; [19]): 0.387 µM |
| COC(=O)Nc1nc2ccc(C(=O)c3ccccc3)cc2[nH]1 [Mebendazole] | – | – | – | – | – | – | – | – | – | – | – | – | – | > 20 | > 20 | > 20 | > 20 | – | > 20 | EC50 (HeLa cells; Homo sapiens, HeLa): 0.08 µM; EC50 (INS-1E cells; [13]): > 10 µM; IC50 (HCT116; [14]): 8.26 µM; IC50 (SW480; [15]): > 20 µM; EC50 [1, 16]: 0.245 µM; IC50 [2, 17]: 0.37 µM; IC50 (hKDR): 1.43 µM; EC50 (NCI-H716 cells; [18]): > 10 µM; IC50 (DLD-1; [19]): 10.1 µM |
| Cc1ccccc1C(=O)Nc1ccc(C(=O)N2CCCC(N(C)C)c3ccccc32)cc1 (centres unmarked) [Mozavaptan] | > 10 | > 10 | > 20 | 7.56 | > 20 | 3.45 | > 20 | 4.56 | > 10 | > 20 | > 20 | > 10 | 12.8 | > 20 | – | – | – | – | – | – |
| COC(=O)Nc1nc2ccc(C(=O)c3cccs3)cc2[nH]1 [Nocodazole] | – | – | – | – | – | – | – | – | – | – | – | – | – | – | > 20 | > 20 | > 20 | 6.61 | 19.9 | EC50 (HeLa cells; [20]): 0.0221 µM; EC50 (INS-1E cells; [21]): > 10 µM; IC50 (HCT116; [22]): 1.08 µM; IC50 (SW480; [23]): > 20 µM; EC50 [1, 24]: 0.0434 µM; IC50 [2, 25]: 0.102 µM; IC50 [3, 26]: 1.12 µM; EC50 (NCI-H716 cells; [27]): > 10 µM; IC50 (DLD-1; [28]): 1.66 µM |
| CCCOc1ccc2nc(NC(=O)OC)[nH]c2c1 [Oxibendazole] | – | – | – | – | – | – | – | – | – | – | – | – | – | – | > 20 | > 20 | > 20 | > 20 | > 20 | EC50 (HeLa cells; [20]): 0.0567 µM; EC50 (INS-1E cells; [21]): > 10 µM; IC50 (HCT116; [22]): 4.75 µM; IC50 (SW480; [23]): > 20 µM; EC50 [1, 24]: 0.0881 µM; IC50 [2, 25]: 0.328 µM; IC50 [3, 26]: > 20 µM; EC50 (NCI-H716 cells; [27]): > 10 µM; IC50 (DLD-1; [28]): > 20 µM |
